Patent US20250154288A1, “CYTOTOXICITY TARGETING CHIMERAS FOR C-C CHEMOKINE RECEPTOR 2-EXPRESSING CELLS” (GLAXOSMITHKLINE INTELLECTUAL PROPERTY DEVELOPMENT LIMITED, priority 2022, published 2025)
Where a name gives a salt, the structure may show the parent alone.

What was measured:
[1] = biological target: T1, CHOK1 cells engineered to overexpress human CCR2 (Homo sapiens, UniProt P41597); test: Antibody Dependent Cellular Cytotoxicity (ADCC) Reporter Assay; assay type: cell-based; conditions: with anti-cotinine antibody (human IgG1 Fc, S239D/I332E); Jurkat FcγRIIIa NFAT-luciferase reporter cells; average if several runs; read-out: ADCC Reporter Assay pEC50 (converted)
T1 construct: expressed in transfected cells; host or cells: CHOK1
Protocol: An antibody dependent cellular cytoxocity reporter assay was conducted using the following four assay components: (i) ARM compound of Formula (I) targeting CCR2 (concentrations ranging from 1 pM to 10 μM) (ii) anti-cotinine antibody having a heavy chain sequence of SEQ ID NO: 11 and a light chain sequence of SEQ ID NO: 12 (rabbit variable region with human IgG1 Fc domain containing a DE mutation (S239D/I332E)) (concentrations ranging from 0.01 μg/mL to 200 μg/mL); (iii) target cells: CHOK1 cells engineered to overexpress either human CCR2 (typically 1000-20,000 cells per well) and (iv) reporter cells: Jurkat cells engineered to express FcγRIIIa with the reporter gene luciferase under the control of the NFAT promoter (typically 3000-75,000 cells per well). Reagents were combined in a final volume of 20 μL in a 384-well tissue culture treated plate. All four assay components were incubated together for about 12-18 hours. Thereafter, BioGlo Detection reagent (Promega) was added to the wells to lyse the cells and provide a substrate for the luciferase reporter protein. Luminescence signal was measured on a microplate reader and signal:background was calculated by dividing the signal of a test well by the signal obtained when no heterobivalent compound of Formula (I) was added. EC50 calculations were done using Graphpad Prism Software, specifically a nonlinear regression curve fit (Y=Bottom+(Top−Bottom)/(1+10 ^((Log EC50−X)*HillSlope))).
ARMs compounds of Formula (I) of the invention were tested for ADCC activity in the above assay in or more experimental runs and the results are shown in Table 3 below. Potency of the compounds of Formula (I) of the invention is reported as a pEC50 value. The pEC50 value is the negative log of the EC50 value, wherein the EC50 value is the half maximal effective concentration measured in molar (M). For compounds tested in more than one experimental run, the pEC50 value is reported as an average.

[2] = system: CCR2 expressing cells (CD11b+Ly6c+ Hi) in peripheral blood; test: In Vivo Depletion Assay (flow cytometry of peripheral blood); set-up: species or system Human CCR2 (hCCR2) knock-in mice; conditions: hCCR2 knock-in mice; IV 0.1 mpk compound + 10 mpk anti-cotinine antibody (mouse IgG2a Fc); peripheral blood at 48 hr
Protocol: Human CCR2 (hCCR2) knock-in mice (057 background) were dosed intravenously with a PBS solution containing a compound of Formula (I) to measure depletion of CCR2 expressing cells in peripheral blood. Peripheral blood from IV dosed mice was also analyzed to determine PK properties of the ARM compounds of Formula (I).
Stock solution preparation: Stock solutions of compounds of Formula (I) were prepared at 20 mg/mL and 100 mg/mL in DMSO for PK/PD and dose tolerability studies respectively. Stock solutions were stored at −20° C. until further usage.
Formulations preparation: On the day of experiment, the stock solution of the compound of Formula (I) was removed from storage at −20° C. and thawed at room temperature. Anti-cotinine antibody having a heavy chain sequence of SEQ ID NO: 13 and a light chain sequence of SEQ ID NO: 14 (rabbit variable region sequence with mouse IgG2a Fc domain), if required was removed from storage at −80° C. and thawed at room temperature. Antibody vials were immediately transferred into wet ice after thawing. Compounds of Formula (I) were further diluted in DMSO as per experimental requirements.
Formulation composition: The formulation composition was Saline: DMSO: PBS. Saline was added based on the quantity required and then stock solution of the compound of Formula (I) prepared in DMSO, followed by addition of antibody in PBS. Formulations were incubated at room temperature for 30 minutes before administration to the mouse. DMSO was used at 1 to 2% (v/v) in the final formulation.
Administration to Animal: Solution formulation of antibody and compound of Formula (I) was injected (bolus injection) to the restrained mouse in the right/left lateral tail vein. Animals were dosed with 0.1 milligram per kilogram (mpk) of the compound of Formula (I) and 10 mpk of the anti-cotinine antibody.
Terminal bleeding at end of experiment (48 hr): Approximately 250 μL of blood in K2EDTA tube and approximately 250 μL of blood in SST (serum separation tube) was collected from each mouse through retro-orbital bleeding under deep isoflurane anesthesia. After bleeding, each mouse was sacrificed by cervical dislocation. The blood distribution at termination was determined as follows: • For PK: 50 μL of K2EDTA blood was transferred to another tube for PK • Flow cytometry: Remaining blood (˜200 μL) was used for flow cytometry analysis. • For serum collection: serum separator tubes (BD) were centrifuged at 4° C., 5000 rpm for 15 minutes. Approximately 100 μL serum was separated and stored at −80° C. for further usage. • Blood drug concentration: Samples collected at the various timepoints (0.25 hr, 2 hr, 24 and 48 hr) were analyzed to determine blood drug concentration.
CCR2 depletion in peripheral blood was determined by flow cytometry. Briefly, peripheral blood was collected from all animals at the end of study termination and processed. Blood samples were lysed using 1×RBC Lysis buffer and the resulting cell pellet was washed twice in FACS buffer (HBSS containing 5% FBS). Cells were subjected to Fc blocking using mouse Fc block from Biolegend (Trustain, anti-mouse CD16/32, Cat: 101319) to block non-specific binding followed by surface staining for immune markers (CD45, CD3, CD11b, Ly6C, human CCR2). Surface staining was done for 30 minutes in ice and cells were washed twice to remove unbound antibodies. Cells were stained with 7AAD to determine viability and acquired on BD FACSVerse flow cytometer. Appropriate FMO controls and single-color controls were included in the experiment for gating and compensation respectively.
Percent depletion of CD11b+Ly6c+ Hi cells and CCR2 expression for the different treatment groups was determined. The results are shown below in Table 4 and are reported as percent (%) depletion of CCR2 expressing cells.

Row | Structure (SMILES) | EC50 [1] | % Depletion of CCR2 expressing cells [2]
1 | CO[C@@H]1COCC[C@@H]1N[C@@H]1CC[C@](CCCNC(=O)CCOCCOCCOCCOCCOCCOCCOCCOCCOCCOCCOCCOCCNC(=O)[C@H]2CC(=O)N(C)[C@@H]2c2cccnc2)(C(=O)N2CCc3ncc(C(F)(F)F)cc3C2)C1 [Example 1, (2S,3S)—N-(43-((1S,3R)-3-(((3S,4S)-3-methoxytetrahydro-2H-pyran-4-yl)amino)-1-(3-(trifluoromethyl)-5,6,7,8-tetrahydro-1,6-naphthyridine-6-carbonyl)cyclopentyl)-39-oxo-3,6,9,12,15,18,21,24,27,30,33,36-dodecaoxa-40-azatritetracontyl)-1-methyl-5-oxo-2-(pyridin-3-yl)pyrrolidine-3-carboxamide] | 2.51 nM | 91.67%
2 | CO[C@@H]1COCC[C@@H]1N[C@@H]1CC[C@](CCC2CCN(C(=O)[C@H]3CC[C@H](NC(=O)CCCO[C@H]4CC[C@H](OCCNC(=O)[C@H]5CC(=O)N(C)[C@@H]5c5cccnc5)CC4)CC3)CC2)(C(=O)N2CCc3ncc(C(F)(F)F)cc3C2)C1 [Example 2, (2S,3S)—N-(2-(((1R,4S)-4-(4-(((1S,4R)-4-(4-(2-((1S,3R)-3-(((3S,4S)-3-Methoxytetrahydro-2H-pyran-4-yl)amino)-1-(3-(trifluoromethyl)-5,6,7,8-tetrahydro-1,6-naphthyridine-6-carbonyl)cyclopentyl)ethyl)piperidine-1-carbonyl)cyclohexyl)amino)-4-oxobutoxy)cyclohexyl)oxy)ethyl)-1-methyl-5-oxo-2-(pyridin-3-yl)pyrrolidine-3-carboxamide] | 12.6 nM | 97.7%
3 | CO[C@@H]1COCC[C@@H]1N[C@@H]1CC[C@](CCCNC(=O)[C@H]2CC[C@H](NC(=O)CCCO[C@H]3CC[C@H](OCCNC(=O)[C@H]4CC(=O)N(C)[C@@H]4c4cccnc4)CC3)CC2)(C(=O)N2CCc3ncc(C(F)(F)F)cc3C2)C1 [Example 3, (2S,3S)-N-(2-(((1R,4S)-4-(4-(((1S,4R)-4-((3-((1S,3R)-3-(((3S,4S)-3-Methoxytetrahydro-2H-pyran-4-yl)amino)-1-(3-(trifluoromethyl)-5,6,7,8-tetrahydro-1,6-naphthyridine-6-carbonyl)cyclopentyl)propyl)carbamoyl)cyclohexyl)amino)-4-oxobutoxy)cyclohexyl)oxy)ethyl)-1-methyl-5-oxo-2-(pyridin-3-yl)pyrrolidine-3-carboxamide] | 0.631 nM | 98.4%
4 | CO[C@@H]1COCC[C@@H]1N[C@@H]1CC[C@](CCCNC(=O)[C@H]2CC[C@@H](NC(=O)CCCO[C@H]3CC[C@@H](OCCNC(=O)[C@H]4CC(=O)N(C)[C@@H]4c4cccnc4)CC3)CC2)(C(=O)N2CCc3ncc(C(F)(F)F)cc3C2)C1 [Example 4, (2S,3S)-N-(2-(((1S,4R)-4-(4-(((1R,4S)-4-((3-((1S,3R)-3-(((3S,4S)-3-Methoxytetrahydro-2H-pyran-4-yl)amino)-1-(3-(trifluoromethyl)-5,6,7,8-tetrahydro-1,6-naphthyridine-6-carbonyl)cyclopentyl)propyl)carbamoyl)cyclohexyl)amino)-4-oxobutoxy)cyclohexyl)oxy)ethyl)-1-methyl-5-oxo-2-(pyridin-3-yl)pyrrolidine-3-carboxamide, Formic acid salt] | 0.794 nM | 99.69%
5 | CO[C@@H]1COCC[C@@H]1N[C@@H]1CC[C@](CCCCNC(=O)[C@H]2CC[C@H](NC(=O)CCCO[C@H]3CC[C@H](OCCNC(=O)[C@H]4CC(=O)N(C)[C@@H]4c4cccnc4)CC3)CC2)(C(=O)N2CCc3ncc(C(F)(F)F)cc3C2)C1 [Example 7, (2S,3S)-N-(2-(((1R,4S)-4-(4-(((1S,4R)-4-((4-((1S,3R)-3-(((3S,4S)-3-Methoxytetrahydro-2H-pyran-4-yl)amino)-1-(3-(trifluoromethyl)-5,6,7,8-tetrahydro-1,6-naphthyridine-6-carbonyl)cyclopentyl)butyl)carbamoyl)cyclohexyl)amino)-4-oxobutoxy)cyclohexyl)oxy)ethyl)-1-methyl-5-oxo-2-(pyridin-3-yl)pyrrolidine-3-carboxamide] | 2.51 nM | 86.93%
6 | CO[C@@H]1COCC[C@@H]1N[C@@H]1CC[C@](CCNC(=O)[C@H]2CC[C@H](NC(=O)CCCO[C@H]3CC[C@H](OCCNC(=O)[C@H]4CC(=O)N(C)[C@@H]4c4cccnc4)CC3)CC2)(C(=O)N2CCc3ncc(C(F)(F)F)cc3C2)C1 [Example 8, (2S,3S)-N-(2-(((1R,4S)-4-(4-(((1R,4R)-4-((2-((1R,3R)-3-(((3S,4S)-3-Methoxytetrahydro-2H-pyran-4-yl)amino)-1-(3-(trifluoromethyl)-5,6,7,8-tetrahydro-1,6-naphthyridine-6-carbonyl)cyclopentyl)ethyl)carbamoyl)cyclohexyl)amino)-4-oxobutoxy)cyclohexyl)oxy)ethyl)-1-methyl-5-oxo-2-(pyridin-3-yl)pyrrolidine-3-carboxamide] | 1.58 nM | 99.22%
7 | CO[C@@H]1COCC[C@@H]1N[C@@H]1CC[C@](CCCCCNC(=O)[C@H]2CC[C@H](NC(=O)CCCO[C@H]3CC[C@H](OCCNC(=O)[C@H]4CC(=O)N(C)[C@@H]4c4cccnc4)CC3)CC2)(C(=O)N2CCc3ncc(C(F)(F)F)cc3C2)C1 [Example 9, (2S,3S)-N-(2-(((1R,4S)-4-(4-(((1S,4R)-4-((5-((1S,3R)-3-(((3S,4S)-3-Methoxytetrahydro-2H-pyran-4-yl)amino)-1-(3-(trifluoromethyl)-5,6,7,8-tetrahydro-1,6-naphthyridine-6-carbonyl)cyclopentyl)pentyl)carbamoyl)cyclohexyl)amino)-4-oxobutoxy)cyclohexyl)oxy)ethyl)-1-methyl-5-oxo-2-(pyridin-3-yl)pyrrolidine-3-carboxamide] | 1.26 nM | 99%
